Molecules are shown by their SMILES.

The target in the test is juvenile hormone esterase (Trichoplusia ni). The experiment in a line: In vitro inhibition of Trichoplusia Juvenile Hormone Esterase.
Usually IC50 stands for the concentration needed to halve the response being measured. A low value points to inhibition by little substance. `CCCCCC[Se](=O)CC(=O)C(F)(F)F` (configuration not stated) had an IC50 of 0.000537 µM.
Next, `CCCCCCC#CC(=O)C(F)(F)F`: 0.398 µM.
Take `CCCCCCOCC(=O)C(F)(F)F`: the IC50 was found to be 0.0832 µM.
With `CCCCCCOCC(C)=O` the figure was 490 µM.
With `CCCCCCC=CC(=O)C(F)(F)F` the figure was 79.4 µM; with `CCCCCCCCC(=O)C(F)F`, 10 µM.
With `CCCCCCCCC(=O)C(F)(F)F` the figure was 6.76 µM.

The values above are taken from BindingDB's records for doi:10.1021/jm020072w (University of California, 2002).
